A short description of one series: in vivo. The following applies: oral, mouse, in olive oil, 14 days observation. As to the method:
Acute toxicity of the present compound were determined as follows.
Each of the specimens was dispersed in an olive oil. The dispersion was administered to an ICR-JCL mouse orally by a stomach sonde at a predetermined amount. After administration, the intoxication symptoms were continuously observed for 14 days. LD50 value was obtained from the cumulative mortality of the mice by applying the data to the Litchfield-Wilcoxon's graphical method.

For series [1], the system named is carrageenin-induced edema. Briefly: Anti-inflammatory activity: inhibition of carrageenin-induced edema (Example 6). It counts as in vivo, rat (female Wister). The following applies: 4 hours after carrageenin. On the procedure: Anti-inflammatory activity of the present compound was examined by using 10 female Wister rats of 110 to 130 g of body weight as one group following the method of C. A. Winter [refer to Proc. Soc. Exp. Biol. Med., 111, 544(1962)]in which the ratio of inhibiting the carrageenin-induced edema is determined.
(§1) An aqueous suspension of each specimen in an aqueous 1% carboxymethoxycellulose solution was orally administered to the rat in volume of 1 ml per 100 g body weight. The rat as the control group was administered with only an aqueous 1% solution of carboxymethoxycellulose. One hour after the administration, 0.1 ml of an aqueous 1% solution of carrageenin in physiological saline was injected into the plantar tissue of the right hind paw of the rat. Then, after 4 hours from the injection, the volume of the injected foot was measured to find the volume of swelling by subtracting the volume of foot before the injection from that value.
(§2) By comparing the volume of the swelling of the administered group to that of the control group, the ratio of inhibiting the swelling (I.R., %) was calculated according to the following formula: [formula] wherein T represents the average volume of swelling in the group administered with the specimen, and
(§3) C represents the average volume of swelling in the control group.

Series [2] deals with carrageenin-induced edema. Kind of series: Anti-inflammatory activity: inhibition of carrageenin-induced edema (Example 7, rats of 92 to 112 g). It counts as in vivo, rat (female Wister). As to the method: […] A. Winter [refer to Proc. Soc.
as §1, §2, §3

The text below walks through data of patent publication US4567293A, “2-[Para-(2-substituted or unsubstituted-3,3,3-tri-fluoropropyl)phenyl]propionic acid or a salt thereof” (Kureha Kagaku Kogyo Kabushiki Kaisha, priority 1981, dated 1986).

`CC(C(=O)O)c1ccc(CC(C(F)(F)F)C(F)(F)F)cc1` (centres unmarked) [Specimen I, 2-[p-(2-trifluoromethyl-3,3,3-trifluoropropyl)phenyl]propionic acid] gave a median lethal dose (LD50) at 336 h in the series “in vivo” of 1100 mg/kg. Further, the “Inhibitation of carrageenin-induced edema” value (shortened to “Inhibitation”) in series [1] (oral dose 2.5 mg/Kg) is given as 37%; in series [1] (oral dose 5 mg/Kg), 40%; in series [1] (oral dose 10 mg/Kg) it was 46%; in series [1] (oral dose 25 mg/Kg), 50%; in series [1] (oral dose 50 mg/Kg) it was 55%; in series [1] (oral dose 100 mg/Kg), 57%. For the same compound, the “Inhibitation” value in series [1] (oral dose 200 mg/Kg) came out at 63%.
Regarding `CC(C(=O)O)c1ccc(CC(C)C(F)(F)F)cc1` (centres unmarked) [Specimen II, 2-[p-(2-methyl-3,3,3-trifluoropropyl)phenyl]propionic acid], the LD50 at 336 h in the series “in vivo” turned out to be 1040 mg/kg. For the same compound, the “Inhibitation” value in series [1] (oral dose 5 mg/Kg) is recorded as 37%; in series [1] (oral dose 10 mg/Kg) it was 40%; in series [1] (oral dose 50 mg/Kg), 50%; in series [1] (oral dose 100 mg/Kg), 54%; in series [1] (oral dose 200 mg/Kg) it was 65%.
In the series “in vivo”, `CC(C(=O)O)c1ccc(CCC(F)(F)F)cc1` (centres unmarked) [Specimen III, 2-[p-(3,3,3-trifluoropropyl)phenyl]propionic acid] gave an LD50 at 336 h of 1000 mg/kg. Besides, the entries for the “Inhibition of carrageenin-induced edema” value in series [2] (oral dose 25 mg/kg) and in series [2] (oral dose 100 mg/kg) were 38% and 44%, respectively.
In the case of `CC(C)Cc1ccc(C(C)C(=O)O)cc1` (centres unmarked) [Specimen IV, 2-(p-isobutylphenyl)propionic acid, reference compound], the “Inhibitation” value in series [1] (oral dose 25 mg/Kg) is recorded as 29%; in series [1] (oral dose 50 mg/Kg), 40%; in series [1] (oral dose 100 mg/Kg), 42%; in series [1] (oral dose 200 mg/Kg), 52%.
Take `CC(=O)Oc1ccccc1C(=O)O` [Specimen V, acetyl salicyclic acid, reference compound]: the entries for the “Inhibition of carrageenin-induced edema” value in series [2] (oral dose 25 mg/kg) and in series [2] (oral dose 100 mg/kg) were 10% and 28%, respectively.
